Measurements as given in the NIST ThermoML archive (doi:10.1021/acs.jced.7b00347).

Assay: mn = molality of the nth substance listed, in mol/kg
Details: for surface tension liquid-gas: Ring tensiometer; for electrical conductivity: 100 kPa, Liquid, Alternating current cell with electrodes

CCCCCCCCCCCCCCCC[NH+](CCO)CC(C)O.[Cl-] (configuration not stated) + O
Details | electrical conductivity [S/m] | surface tension liquid-gas [mN/m]
293.15 K, m1 = 1.052e-05 | – | 59.82
293.15 K, m1 = 1.579e-05 | – | 56.69
293.15 K, m1 = 2.631e-05 | – | 52.01
293.15 K, m1 = 5.263e-05 | – | 45.56
293.15 K, m1 = 0.0001052 | – | 39.23
293.15 K, m1 = 0.0001263 | 0.000446 | –
293.15 K, m1 = 0.0001316 | 0.000471 | –
293.15 K, m1 = 0.0001368 | 0.000496 | –
293.15 K, m1 = 0.0001421 | 0.000522 | –
293.15 K, m1 = 0.0001473 | 0.000548 | –
293.15 K, m1 = 0.0001526 | 0.000573 | –
293.15 K, m1 = 0.0001579 | 0.000595 | 35.88
293.15 K, m1 = 0.000171 | 0.00061 | –
293.15 K, m1 = 0.0001842 | 0.000621 | –
293.15 K, m1 = 0.0001973 | 0.000633 | –
293.15 K, m1 = 0.0002105 | 0.000644 | 34.88
293.15 K, m1 = 0.0002236 | 0.000655 | –
293.15 K, m1 = 0.0002368 | 0.000667 | –
293.15 K, m1 = 0.00025 | 0.000678 | –
293.15 K, m1 = 0.0002631 | 0.000689 | 34.06
293.15 K, m1 = 0.0002763 | 0.000701 | –
293.15 K, m1 = 0.0002894 | 0.000712 | –
293.15 K, m1 = 0.0003026 | 0.000723 | –
293.15 K, m1 = 0.0003157 | 0.000737 | –
293.15 K, m1 = 0.0005262 | – | 32.43
293.15 K, m1 = 0.001053 | – | 31.43
293.15 K, m1 = 0.001579 | – | 31.07
298.15 K, m1 = 7.893e-06 | – | 56.32
298.15 K, m1 = 1.052e-05 | – | 54.11
298.15 K, m1 = 1.579e-05 | – | 50.72
298.15 K, m1 = 2.631e-05 | – | 46.33
298.15 K, m1 = 5.263e-05 | – | 40.82
298.15 K, m1 = 9.47e-05 | 0.000409 | –
298.15 K, m1 = 0.0001016 | 0.000433 | –
298.15 K, m1 = 0.0001052 | – | 35.11
298.15 K, m1 = 0.0001085 | 0.000458 | –
298.15 K, m1 = 0.0001154 | 0.000482 | –
298.15 K, m1 = 0.0001223 | 0.000507 | –
298.15 K, m1 = 0.0001293 | 0.000531 | –
298.15 K, m1 = 0.0001362 | 0.000556 | –
298.15 K, m1 = 0.0001431 | 0.000581 | –
298.15 K, m1 = 0.00015 | 0.000606 | 32.52
298.15 K, m1 = 0.0001618 | 0.000621 | –
298.15 K, m1 = 0.0001737 | 0.000637 | –
298.15 K, m1 = 0.0001855 | 0.000653 | –
298.15 K, m1 = 0.0001973 | 0.000669 | –
298.15 K, m1 = 0.0002092 | 0.000684 | –
298.15 K, m1 = 0.0002105 | – | 31.91
298.15 K, m1 = 0.000221 | 0.0007 | –
298.15 K, m1 = 0.0002329 | 0.000716 | –
298.15 K, m1 = 0.0002447 | 0.000732 | –
298.15 K, m1 = 0.0002565 | 0.000748 | –
298.15 K, m1 = 0.0002631 | – | 31.41
298.15 K, m1 = 0.0002684 | 0.000764 | –
298.15 K, m1 = 0.0002802 | 0.00078 | –
298.15 K, m1 = 0.0002921 | 0.000796 | –
298.15 K, m1 = 0.0003039 | 0.000811 | –
298.15 K, m1 = 0.0003157 | 0.000829 | –
298.15 K, m1 = 0.0005262 | – | 30.8
298.15 K, m1 = 0.001053 | – | 30.03
298.15 K, m1 = 0.001579 | – | 29.71
303.15 K, m1 = 6.578e-06 | – | 52.23
303.15 K, m1 = 7.893e-06 | – | 50.81
303.15 K, m1 = 1.052e-05 | – | 48.55
303.15 K, m1 = 1.579e-05 | – | 45.89
303.15 K, m1 = 2.631e-05 | – | 42.23
303.15 K, m1 = 5.263e-05 | – | 37.06
303.15 K, m1 = 9.47e-05 | 0.000467 | –
303.15 K, m1 = 9.9e-05 | 0.000486 | –
303.15 K, m1 = 0.0001033 | 0.000505 | –
303.15 K, m1 = 0.0001052 | – | 32.07
303.15 K, m1 = 0.0001075 | 0.000524 | –
303.15 K, m1 = 0.0001118 | 0.000544 | –
303.15 K, m1 = 0.0001161 | 0.000563 | –
303.15 K, m1 = 0.0001204 | 0.000582 | –
303.15 K, m1 = 0.0001247 | 0.000601 | –
303.15 K, m1 = 0.0001289 | 0.000621 | –
303.15 K, m1 = 0.0001315 | – | 31.01
303.15 K, m1 = 0.0001423 | 0.000643 | –
303.15 K, m1 = 0.0001556 | 0.000666 | –
303.15 K, m1 = 0.0001579 | – | 30.51
303.15 K, m1 = 0.000169 | 0.000689 | –
303.15 K, m1 = 0.0001823 | 0.000712 | –
303.15 K, m1 = 0.0001956 | 0.000735 | –
303.15 K, m1 = 0.000209 | 0.000757 | –
303.15 K, m1 = 0.0002105 | – | 30.45
303.15 K, m1 = 0.0002223 | 0.00078 | –
303.15 K, m1 = 0.0002357 | 0.000803 | –
303.15 K, m1 = 0.000249 | 0.000826 | –
303.15 K, m1 = 0.0002624 | 0.000849 | –
303.15 K, m1 = 0.0002631 | – | 30.43
303.15 K, m1 = 0.0002757 | 0.000872 | –
303.15 K, m1 = 0.0002891 | 0.000895 | –
303.15 K, m1 = 0.0003024 | 0.000918 | –
303.15 K, m1 = 0.0003157 | 0.000944 | –
303.15 K, m1 = 0.0005262 | – | 29.89
303.15 K, m1 = 0.001053 | – | 29.16
303.15 K, m1 = 0.001579 | – | 28.81
308.15 K, m1 = 4.604e-06 | – | 52.01
308.15 K, m1 = 7.893e-06 | – | 48.13
308.15 K, m1 = 1.052e-05 | – | 46
308.15 K, m1 = 1.579e-05 | – | 43.23
308.15 K, m1 = 2.631e-05 | – | 39.78
308.15 K, m1 = 5.263e-05 | – | 35.06
308.15 K, m1 = 7.37e-05 | 0.000445 | –
308.15 K, m1 = 8.04e-05 | 0.000472 | –
308.15 K, m1 = 8.72e-05 | 0.0005 | –
308.15 K, m1 = 9.4e-05 | 0.000528 | –
308.15 K, m1 = 0.0001007 | 0.000556 | –
308.15 K, m1 = 0.0001075 | 0.000583 | –
308.15 K, m1 = 0.0001143 | 0.000611 | –
308.15 K, m1 = 0.000121 | 0.00064 | 29.71
308.15 K, m1 = 0.00013 | 0.000659 | –
308.15 K, m1 = 0.0001389 | 0.000679 | –
308.15 K, m1 = 0.0001479 | 0.000699 | –
308.15 K, m1 = 0.0001568 | 0.000719 | –
308.15 K, m1 = 0.0001579 | – | 29.44
308.15 K, m1 = 0.0001658 | 0.000739 | –
308.15 K, m1 = 0.0001747 | 0.000759 | –
308.15 K, m1 = 0.0001837 | 0.000778 | –
308.15 K, m1 = 0.0001926 | 0.000798 | –
308.15 K, m1 = 0.0002015 | 0.000818 | –
308.15 K, m1 = 0.0002105 | 0.000839 | 29.16
308.15 K, m1 = 0.0002194 | 0.000858 | –
308.15 K, m1 = 0.0002284 | 0.000878 | –
308.15 K, m1 = 0.0002373 | 0.000898 | –
308.15 K, m1 = 0.0002463 | 0.000917 | –
308.15 K, m1 = 0.0002552 | 0.000937 | –
308.15 K, m1 = 0.0002631 | – | 29.02
308.15 K, m1 = 0.0002642 | 0.000957 | –
308.15 K, m1 = 0.0002731 | 0.000977 | –
308.15 K, m1 = 0.0002821 | 0.000997 | –
308.15 K, m1 = 0.000291 | 0.00102 | –
308.15 K, m1 = 0.0005262 | – | 28.71
308.15 K, m1 = 0.001053 | – | 28.26
308.15 K, m1 = 0.001579 | – | 28.07
